Assay results published in patent US9023318B2, “Compounds with matrix-metalloproteinase inhibitory activity and imaging agents thereof” (Siemens Medical Solutions USA, Inc., priority 2011, dated 2015).

How the values were obtained:
[1] = target: recombinant MMP-13 (Homo sapiens, UniProt P45452); assay: MMP compound screening, recombinant MMP-13 (SensoLyte 390 Generic MMP Activity Kit); assay type: biochemical; conditions: read-out: inhibition of MMP-13 activity, % of total activity; for inhibition at 0.1 µM: 100 nM (0.1 uM) compound; for inhibition at 0.01 µM: 10 nM compound
Protocol: (§1) The activities were determined using Fluorimetric SensoLyte® 390 Generic MMP Activity Kit from Anaspec (cat #72202). This assay kit can detect the activity of several MMPs such as MMP-1, 2, 7, 8, 9, 13, 14, 15, 16 and 24.
(§2) For screening MMP compounds, activated 2 nM of recombinant MMP-2, 8, 9 or 13 are pre-incubated with MMP compound (inhibitor) for 30 min at 37° C. The substrate is added and the inhibition of MMP activity is expressed as % of total activity (without the inhibitor incubation).

[2] = target: recombinant MMP-8 (Homo sapiens, UniProt P22894); assay: MMP compound screening, recombinant MMP-8 (SensoLyte 390 Generic MMP Activity Kit); assay type: biochemical; conditions: read-out: inhibition of MMP-8 activity, % of total activity; for inhibition at 0.1 µM: 100 nM (0.1 uM) compound; for inhibition at 0.01 µM: 10 nM compound
Sequence of recombinant MMP-8 (P22894 101-467, species assumed): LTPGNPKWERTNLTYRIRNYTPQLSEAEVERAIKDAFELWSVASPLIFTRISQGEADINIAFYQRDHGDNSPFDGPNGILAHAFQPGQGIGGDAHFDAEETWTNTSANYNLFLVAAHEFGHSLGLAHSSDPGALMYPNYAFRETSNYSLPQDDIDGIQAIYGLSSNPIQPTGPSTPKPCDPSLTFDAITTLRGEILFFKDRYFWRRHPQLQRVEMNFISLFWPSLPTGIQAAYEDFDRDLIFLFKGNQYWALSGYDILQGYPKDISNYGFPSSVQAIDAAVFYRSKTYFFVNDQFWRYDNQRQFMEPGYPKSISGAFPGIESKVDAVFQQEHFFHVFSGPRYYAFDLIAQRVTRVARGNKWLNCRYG
Protocol: as §1, §2

[3] = target: T1, recombinant MMP-2 (Homo sapiens, UniProt P08253); assay: MMP compound screening, recombinant MMP-2 (SensoLyte 390 Generic MMP Activity Kit); assay type: biochemical; conditions: for inhibition at 0.01 µM: 10 nM compound; for IC50: 2 nM enzyme, 30 min pre-incubation at 37° C.
T1 sequence (P08253 110-660): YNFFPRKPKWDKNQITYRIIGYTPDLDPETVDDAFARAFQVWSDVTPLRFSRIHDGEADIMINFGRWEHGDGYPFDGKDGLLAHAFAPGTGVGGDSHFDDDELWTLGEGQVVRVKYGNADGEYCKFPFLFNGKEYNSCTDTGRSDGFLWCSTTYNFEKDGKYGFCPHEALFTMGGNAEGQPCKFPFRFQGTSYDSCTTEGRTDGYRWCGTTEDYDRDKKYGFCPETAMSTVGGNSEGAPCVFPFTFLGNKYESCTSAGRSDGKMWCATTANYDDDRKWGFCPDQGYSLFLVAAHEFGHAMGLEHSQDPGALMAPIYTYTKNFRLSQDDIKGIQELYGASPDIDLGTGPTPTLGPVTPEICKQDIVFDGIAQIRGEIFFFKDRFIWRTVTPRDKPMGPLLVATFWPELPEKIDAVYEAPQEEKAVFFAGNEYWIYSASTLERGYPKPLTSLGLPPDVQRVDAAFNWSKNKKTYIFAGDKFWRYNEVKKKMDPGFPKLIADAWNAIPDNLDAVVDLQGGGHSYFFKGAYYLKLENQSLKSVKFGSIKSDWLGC
Protocol: as §1, §2

[4] = target: recombinant MMP-9 (Homo sapiens, UniProt P14780); assay: MMP compound screening, recombinant MMP-9 (SensoLyte 390 Generic MMP Activity Kit); assay type: biochemical; conditions: for inhibition at 0.01 µM: 10 nM compound
Sequence of recombinant MMP-9 (P14780 107-707 limits assumed, species assumed): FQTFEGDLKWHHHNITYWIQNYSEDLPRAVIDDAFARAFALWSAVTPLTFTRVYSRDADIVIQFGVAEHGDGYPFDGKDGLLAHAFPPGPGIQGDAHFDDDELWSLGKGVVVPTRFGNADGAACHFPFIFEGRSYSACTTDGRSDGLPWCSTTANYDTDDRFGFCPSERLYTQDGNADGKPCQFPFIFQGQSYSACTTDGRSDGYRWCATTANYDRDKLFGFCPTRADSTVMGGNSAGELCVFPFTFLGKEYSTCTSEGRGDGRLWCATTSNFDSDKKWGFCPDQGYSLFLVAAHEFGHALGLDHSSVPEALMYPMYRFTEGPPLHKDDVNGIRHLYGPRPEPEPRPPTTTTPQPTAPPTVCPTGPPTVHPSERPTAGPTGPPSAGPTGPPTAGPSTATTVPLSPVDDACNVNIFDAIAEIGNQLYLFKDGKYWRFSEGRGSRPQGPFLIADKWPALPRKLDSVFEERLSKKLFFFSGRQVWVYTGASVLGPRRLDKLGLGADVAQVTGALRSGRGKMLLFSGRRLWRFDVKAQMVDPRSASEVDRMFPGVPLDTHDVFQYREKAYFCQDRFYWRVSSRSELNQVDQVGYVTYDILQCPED
Protocol: as §1, §2

[5] = system: MMP; assay: MMP inhibition, general statement; assay type: biochemical
Protocol: as §1, §2

[6] = Biodistribution of M005: tumor and tissue fluorescence scans; assay type: in vivo, mouse; conditions: 4 h uptake time, Cy5 channel
Protocol: FIGS. 3-5 are mouse scans before and 4 hours after […] injection.

[7] = read-out: inhibition of MMP-2 activity, % of total activity
[8] = read-out: inhibition of MMP-9 activity, % of total activity

Row | inhibition at 0.1 µM [1] [%] | inhibition at 0.1 µM [2] [%] | inhibition at 0.01 µM [3, 7] [%] | inhibition at 0.01 µM [1] [%] | inhibition at 0.01 µM [2] [%] | inhibition at 0.01 µM [4, 8] [%] | IC50 [3] [nM] | SMILES | other results
1 |  |  | 28 | 10 | 13 | 2 |  | COc1ccc(S(=O)(=O)N(Cc2cn(CCOCCOCCOCCNC(=O)CCC(NC(=O)Cn3cc(CCCF)nn3)C(=O)NCCOCCOCCOCCn3cc(CN([C@@H](C(=O)NOC(C)(C)C)C(C)C)S(=O)(=O)c4ccc(OC)cc4)nn3)nn2)[C@@H](C(=O)NO)C(C)C)cc1 (some centres unmarked) [M010] | 
2 |  |  |  |  |  |  | 2 | CCN1C(=CC=CC=CC2=[N+](CCCCCC(=O)NCCCCC(NC(=O)Cn3cc(CCCF)nn3)C(=O)NCCOCCOCCOCCn3cc(CN(C(C(=O)NO)C(C)C)S(=O)(=O)c4ccc(OC)cc4)nn3)c3ccc4c(S(=O)(=O)O)cc(S(=O)(=O)[O-])cc4c3C2(C)C)C(C)(C)c2c1ccc1c(S(=O)(=O)O)cc(S(=O)(=O)O)cc21 (centres unmarked) [M005] | uptake in tumor and tissue (fluorescence) ([6]; with and without tracer injection): uptake above background fluorescence of tissue; uptake into the brain ([6]; brain used as background tissue): no uptake of the tracer into the brain; IC50 ([4]; 2 nM enzyme, 30 min pre-incubation at 37° C.): 2.1 nM
3 | 91 | 83 |  |  |  |  | 25 | COc1ccc(S(=O)(=O)N(Cc2cn(CCOCCOCCOCCNC(=O)CCCCC[N+]3=C(/C=C/C=C/C=C4\N(C)c5ccc6ccccc6c5C4(C)C)C(C)(C)c4c3ccc3ccccc43)nn2)[C@@H](C(=O)NO)C(C)C)cc1 [M004] | 
4 | 97 | 97 |  |  |  |  | 5.2 | CCN1\C(=C/C=C/C=C/C2=[N+](CCCCCC(=O)NCCOCCOCCOCCn3cc(CN([C@@H](C(=O)NO)C(C)C)S(=O)(=O)c4ccc(OC)cc4)nn3)c3ccc4c(S(=O)(=O)O)cc(S(=O)(=O)[O-])cc4c3C2(C)C)C(C)(C)c2c1ccc1c(S(=O)(=O)O)cc(S(=O)(=O)O)cc21 [M003] | 
5 |  |  | 50 | 75 | 57 | 55 |  | COc1ccc(S(=O)(=O)N(Cc2cn(CCOCCNC(=O)c3cc(C(=O)NCCOCCn4cc(CN([C@@H](C(=O)NO)C(C)C)S(=O)(=O)c5ccc(OC)cc5)nn4)cc(-n4cc(CCCF)nn4)c3)nn2)[C@H](C(=O)NO)C(C)C)cc1 [M011] | 

Further lines, the compound ahead of its results:

Row | SMILES | inhibition at 0.1 µM [1] [%] | inhibition at 0.1 µM [2] [%] | inhibition at 0.01 µM [3, 7] [%] | inhibition at 0.01 µM [1] [%] | inhibition at 0.01 µM [2] [%] | inhibition at 0.01 µM [4, 8] [%] | IC50 [3] [nM] | other results
6 | COc1ccc(-c2cn(CCN([C@@H](C(=O)NO)C(C)C)S(=O)(=O)c3ccc(OC)cc3)nn2)cc1 [M001] | 99 | 92 |  |  |  |  |  | 
7 | COc1ccc(S(=O)(=O)N(Cc2cn(CCOCCOCCOCCNC(=O)CCC(NC(=O)Cn3cc(CCCF)nn3)C(=O)NCCOCCOCCOCCn3cc(CN([C@@H](C(=O)NO)C(C)C)S(=O)(=O)c4ccc(OC)cc4)nn3)nn2)[C@@H](C(=O)NO)C(C)C)cc1 (some centres unmarked) [M009] |  |  | 59 | 64 | 46 |  |  | inhibition of MMP-9 activity, % of total activity ([4]; concentration not given): 48%
8 | COc1ccc(S(=O)(=O)N(Cc2cn(CCOCCn3cc(CN([C@@H](C(=O)NO)C(C)C)S(=O)(=O)c4ccc(OC)cc4)nn3)nn2)[C@H](C(=O)NO)C(C)C)cc1 [M007] | 99 | 100 | 64 | 96 | 94 | 89 |  | inhibition at 0.1 µM ([3]; 100 nM (0.1 uM) compound, read-out: inhibition of MMP-2 activity, % of total activity): 95%; inhibition at 0.1 µM ([4]; 100 nM (0.1 uM) compound, read-out: inhibition of MMP-9 activity, % of total activity): 100%; MMP inhibition (in words) [5]: good MMP inhibition
9 | COc1ccc(S(=O)(=O)N(Cc2cn(CCOCCNC(=O)c3cc(C(=O)O)cc(-n4cc(CCCF)nn4)c3)nn2)[C@@H](C(=O)NO)C(C)C)cc1 [M013] |  |  | 66 | 79 | 84 | 67 |  | 
10 | COc1ccc(S(=O)(=O)N(Cc2cn(CCOCCn3cc(CCCF)nn3)nn2)[C@@H](C(=O)NO)C(C)C)cc1 [M008] |  |  | 82 | 82 | 95 | 78 |  | 
